From patent publication US11179348B2, “Combination comprising pterostilbene for the treatment of cancer” (FUNDACIÓN UNIVERSIDAD CATÓLICA DE VALENCIA SAN VICENTE …, priority 2015, dated 2021)
Marks after values point to notes of the source that are not given here.

Experiments:
MelJuso melanoma = assay: In vivo growth of MelJuso melanoma xenografts in nu/nu mice; set-up: species or system human
[1] = system: MCF-7 breast adenocarcinoma; assay: In vivo growth of MCF-7 breast cancer xenografts; set-up: species or system human; details: MCF-7, day 28
[2] = system: glucocorticoid receptors (GR); assay: GR content of human cancer cells by [3H]-labeled ligand whole-cell binding assay
[3] = system: HepG2 cells isolated from tumor-bearing mice; assay: Chemosensitization of cultured HepG2 cells isolated from xenografts; format: cell-based, human; details: 72 h-cultured, PL 0.2 μM, Chemo 0.15 μM DXR, Pter = in vivo pretreatment
Experimental: FIGS. 18-25. Effect of piperlongumine and I-BET762, as GSH depleting and chemosensitizing agents, in in vitro growing human melanoma, pancreatic, breast, lung, liver, prostate, ovarian, and colorectal cancer cells. Cancer cells, isolated from Pter-treated tumor-bearing mice, were cultured as indicated under Methods. Chemotherapy (0.25 μM PAC.PBP in A2058 melanoma and MDA-MB-231 breast carcinoma cells; 0.125 μM PAC.PBP and 25 μM GTB in AsPC-1 pancreatic cancer cells; 1 μM VRB and 15 μM cisPt in A459 lung carcinoma cells; 0.15 μM DXR in HepG2 hepatocellular carcinoma cells; 15 nM DCT in PC-3 prostate carcinoma cells; 0.15 μM PAC.PBP and 25 μM CarboPt in SK-OV-3 ovarian carcinoma cells; 3 μM 5-FU, 1 μM FA and 0.6 μM IRI in HT-29 colorectal carcinoma cells) was added to the cultured flasks 24 h after seeding. […]
Human A2058, MeWo and MelJuso melanoma cells, and mouse AtT-20 pituitary corticotroph tumor cells were from the American Type Culture Collection (ATCC). […] Cell numbers were determined using a Coulter Counter (Coulter Electronic Inc., Miami, Fla.). […] Cellular viability was assessed as previously reported (Mena, S. et al. Clin Cancer Res 13, 2658-2666 (2007)), by measuring trypan blue exclusion and leakage of lactate dehydrogenase activity. […]

NORA = assay: Plasma NORA levels (ELISA) in melanoma-bearing mice; format: in vivo; details: melanoma-bearing mice treated vs not treated with Pter
Description: Measurement of ACTH, Corticosterone, and NORA Levels.
Plasma levels of ACTH (Calbiotech, Inc., Spring Valley, Calif.), corticosterone (Kamiyama Biomedical Co., Seattle, Wash.), and NORA (IBL, Hamburg, Germany) were quantified by ELISA according to the instructions of the suppliers.

COc1cc(/C=C/c2ccc(O)cc2)cc(OC)c1 [Pter, trans-3,5-dimethoxy-4′-hydroxystilbene]
inhibition of tumor growth (MelJuso melanoma; MelJuso, day 42, 30 mg Pter/kg i.v. every 48 h, vs controls): ~49% | Tumor vol. (MelJuso melanoma; MelJuso-RFP, 35 days after inoculation, Pter 30 mg/kg i.v. every 48 h and/or CRC infusion 0.3 μg/h): 145 ± 35* mm^3 | Tumor vol. [1]: 689 ± 153 mm^3 | GR number ([2]; A549, day 35): 41 ± 10 10^3 GR/cell | GR number (binding sites/cell) ([2]; A2058-RFP tumors, day 35): 71 ± 5 10^3 GR/cell | GR number (binding sites/cell) ([2]; AsPC-1-RFP tumors, day 28): 63 ± 10 10^3 GR/cell | GR number (binding sites/cell) ([2]; BxPC-3-RFP tumors, day 35): 115 ± 27 10^3 GR/cell | GR number ([2]; Caco-2, day 28): 7 ± 2 10^3 GR/cell | GR number ([2]; HT-29, day 21): 14 ± 3 10^3 GR/cell | GR number ([2]; HepG2, day 35): 45 ± 11 10^3 GR/cell | GR number ([2]; LNCaP, day 49): 3 ± 1 10^3 GR/cell | GR number ([2]; MCF-7, day 28): <1 10^3 GR/cell | GR number ([2]; MDA-MB-231, day 35): 18 ± 3 10^3 GR/cell | GR number (binding sites/cell) ([2]; MeWo-RFP tumors, day 35): 45 ± 6 10^3 GR/cell | GR number (binding sites/cell) ([2]; MelJuso-RFP tumors, day 35): 47 ± 4 10^3 GR/cell | GR number ([2]; PC-3, day 21): 21 ± 6 10^3 GR/cell | GR number ([2]; SK-OV-3, day 49): 25 ± 7 10^3 GR/cell | Viable cells [3]: 1580 ± 318 ×10^6 | NORA levels in plasma (NORA): not significantly different
